Legend:
Format in all cases: functional
[1] = Growth inhibition of human NCI-ADR-RES cells assessed as cell growth at 10^-5 M after 48 hrs by SRB assay; details: read-out: Activity
KM12 = experiment: Growth inhibition of human KM12 cells assessed as cell growth at 10^-5 M after 48 hrs by SRB assay; details: KM12, 48 h, read-out: Activity
SF-268 [2] = experiment: Growth inhibition of human SF268 cells assessed as cell growth at 10^-5 M after 48 hrs by SRB assay; details: SF-268, 48 h, read-out: Activity
RXF 393 = experiment: Growth inhibition of human RXF393 cells assessed as cell growth at 10^-5 M after 48 hrs by SRB assay; details: RXF 393, 48 h, read-out: Activity
NCI-H23 [3] = experiment: Growth inhibition of human NCI-H23 cells after 48 hrs by SRB assay; details: NCI-H23, 48 h
NCI-H460 = experiment: Growth inhibition of human NCI-H460 cells after 48 hrs by SRB assay; details: NCI-H460, 48 h
NCI-H23 [4] = experiment: Growth inhibition of human NCI-H23 cells assessed as cell growth at 10^-5 M after 48 hrs by SRB assay; details: NCI-H23, 48 h, read-out: Activity
SK-OV-3 = experiment: Growth inhibition of human SKOV3 cells assessed as cell growth at 10^-5 M after 48 hrs by SRB assay; details: SK-OV-3, 48 h, read-out: Activity
SF-295 = experiment: Growth inhibition of human SF295 cells assessed as cell growth at 10^-5 M after 48 hrs by SRB assay; details: SF-295, 48 h, read-out: Activity
TK-10 [5] = experiment: Growth inhibition of human TK10 cells assessed as cell growth at 10^-5 M after 48 hrs by SRB assay; details: TK-10, 48 h, read-out: Activity
786-0 = experiment: Growth inhibition of human 786-0 cells assessed as cell growth at 10^-5 M after 48 hrs by SRB assay; details: 786-0, 48 h, read-out: Activity
HOP-92 [6] = experiment: Growth inhibition of human HOP92 cells assessed as cell growth at 10^-5 M after 48 hrs by SRB assay; details: HOP-92, 48 h, read-out: Activity
HOP-92 [7] = experiment: Growth inhibition of human HOP92 cells after 48 hrs by SRB assay; details: HOP-92, 48 h
HT-29 = experiment: Growth inhibition of human HT-29 cells assessed as cell growth at 10^-5 M after 48 hrs by SRB assay; details: HT-29, 48 h, read-out: Activity
SK-MEL-28 = experiment: Growth inhibition of human SK-MEL-28 cells assessed as cell growth at 10^-5 M after 48 hrs by SRB assay; details: SK-MEL-28, 48 h, read-out: Activity
SNB-19 = experiment: Growth inhibition of human SNB19 cells after 48 hrs by SRB assay; details: SNB-19, 48 h
SF-539 = experiment: Growth inhibition of human SF539 cells after 48 hrs by SRB assay; details: SF-539, 48 h
MOLT-4 = experiment: Growth inhibition of human MOLT4 cells after 48 hrs by SRB assay; details: MOLT-4, 48 h
[8] = Growth inhibition of human Hs 578T cells assessed as cell growth at 10^-5 M after 48 hrs by SRB assay; details: read-out: Activity
[9] = Growth inhibition of human […] cells assessed as cell growth at 10^-5 M after 48 hrs by SRB assay; details: RPMI18226, 48 h, read-out: Activity
COLO 205 = experiment: Growth inhibition of human COLO205 cells after 48 hrs by SRB assay; details: COLO 205, 48 h
SF-268 [10] = experiment: Growth inhibition of human SF268 cells after 48 hrs by SRB assay; details: SF-268, 48 h
HCC 2998 = experiment: Growth inhibition of human HCC2998 cells assessed as cell growth at 10^-5 M after 48 hrs by SRB assay; details: HCC 2998, 48 h, read-out: Activity
NCI-H522 = experiment: Growth inhibition of human NCI-H522 cells after 48 hrs by SRB assay; details: NCI-H522, 48 h
SK-MEL-2 = experiment: Growth inhibition of human SK-MEL-2 cells assessed as cell growth at 10^-5 M after 48 hrs by SRB assay; details: SK-MEL-2, 48 h, read-out: Activity
HOP-62 = experiment: Growth inhibition of human HOP62 cells after 48 hrs by SRB assay; details: HOP-62, 48 h
UO-31 = experiment: Growth inhibition of human UO31 cells after 48 hrs by SRB assay; details: UO-31, 48 h
HCT-15 = experiment: Growth inhibition of human HCT15 cells after 48 hrs by SRB assay; details: HCT-15, 48 h
OVCAR-3 = experiment: Growth inhibition of human OVCAR3 cells after 48 hrs by SRB assay; details: OVCAR-3, 48 h
IGROV-1 = experiment: Growth inhibition of human IGROV1 cells after 48 hrs by SRB assay; details: IGROV-1, 48 h
DU-145 = experiment: Growth inhibition of human DU145 cells assessed as cell growth at 10^-5 M after 48 hrs by SRB assay; details: DU-145, 48 h, read-out: Activity
OVCAR-5 = experiment: Growth inhibition of human OVCAR5 cells assessed as cell growth at 10^-5 M after 48 hrs by SRB assay; details: OVCAR-5, 48 h, read-out: Activity
TK-10 [11] = experiment: Growth inhibition of human TK10 cells after 48 hrs by SRB assay; details: TK-10, 48 h
A549 = experiment: Growth inhibition of human A549/ATCC cells assessed as cell growth at 10^-5 M after 48 hrs by SRB assay; details: A549, 48 h, read-out: Activity
[12] = read-out: LC50 (the source's name)

O=C(CO[N+](=O)[O-])Nc1ccc(C(=O)/C=C/c2ccc(Cl)cc2)cc1
growth at 10 µM [1]: 29.9%
growth at 10 µM (KM12): -60.6%
growth at 10 µM (SF-268 [2]): 44.9%
growth at 10 µM (RXF 393): 72.5%
GI50 (NCI-H23 [3]): 4.55 µM
TGI (NCI-H23 [3]): 22.1 µM
CC50 (NCI-H23 [3]; [12]): 81.1 µM
GI50 (NCI-H460): 12.7 µM
TGI (NCI-H460): 54.9 µM
CC50 (NCI-H460; [12]): > 100 µM
growth at 10 µM (NCI-H23 [4]): 5.49%
growth at 10 µM (SK-OV-3): 89.3%
growth at 10 µM (SF-295): 105%
growth at 10 µM (TK-10 [5]): 45.7%
growth at 10 µM (786-0): 75%
growth at 10 µM (HOP-92 [6]): 66.8%
GI50 (HOP-92 [7]): 2.95 µM
TGI (HOP-92 [7]): 15.2 µM
CC50 (HOP-92 [7]; [12]): 53.2 µM
growth at 10 µM (HT-29): -23.4%
growth at 10 µM (SK-MEL-28): 86.8%
GI50 (SNB-19): 4.11 µM
TGI (SNB-19): 18.4 µM
CC50 (SNB-19; [12]): 64 µM
GI50 (SF-539): 2.52 µM
TGI (SF-539): 8.82 µM
CC50 (SF-539; [12]): 42.9 µM
GI50 (MOLT-4): 4.68 µM
TGI (MOLT-4): 69.4 µM
CC50 (MOLT-4; [12]): > 100 µM
growth at 10 µM [8]: 89.7%
growth at 10 µM [9]: -14.2%
GI50 (COLO 205): 2.57 µM
TGI (COLO 205): 6.09 µM
CC50 (COLO 205; [12]): 21.1 µM
GI50 (SF-268 [10]): 2.62 µM
TGI (SF-268 [10]): 11.7 µM
CC50 (SF-268 [10]; [12]): 38 µM
growth at 10 µM (HCC 2998): -61.3%
GI50 (NCI-H522): 2.31 µM
TGI (NCI-H522): 8.37 µM
CC50 (NCI-H522; [12]): 32.8 µM
growth at 10 µM (SK-MEL-2): 81.7%
GI50 (HOP-62): 3.11 µM
TGI (HOP-62): 9.73 µM
CC50 (HOP-62; [12]): 34.6 µM
GI50 (UO-31): 1.52 µM
TGI (UO-31): 12.1 µM
CC50 (UO-31; [12]): 38.5 µM
GI50 (HCT-15): 2.03 µM
TGI (HCT-15): 6.53 µM
CC50 (HCT-15; [12]): 59.7 µM
GI50 (OVCAR-3): 2.22 µM
TGI (OVCAR-3): 6.55 µM
CC50 (OVCAR-3; [12]): 23.9 µM
GI50 (IGROV-1): 13.4 µM
TGI (IGROV-1): 30 µM
CC50 (IGROV-1; [12]): 67.4 µM
growth at 10 µM (DU-145): 79.9%
growth at 10 µM (OVCAR-5): 67%
GI50 (TK-10 [11]): 8.37 µM
TGI (TK-10 [11]): 25.1 µM
CC50 (TK-10 [11]; [12]): 68.2 µM
growth at 10 µM (A549): 67.6%

O=C(CO[N+](=O)[O-])Nc1ccc(C(=O)/C=C/c2ccc3c(c2)OCO3)cc1
growth at 10 µM [1]: 84.5%
growth at 10 µM (KM12): 35.9%
growth at 10 µM (SF-268 [2]): 82.4%
growth at 10 µM (RXF 393): 107%
growth at 10 µM (NCI-H23 [4]): 58.1%
growth at 10 µM (SK-OV-3): 111%
growth at 10 µM (SF-295): 74.6%
growth at 10 µM (TK-10 [5]): 111%
growth at 10 µM (786-0): 109%
growth at 10 µM (HOP-92 [6]): 77.3%
growth at 10 µM (HT-29): 30.1%
growth at 10 µM (SK-MEL-28): 104%
growth at 10 µM [8]: 103%
growth at 10 µM [9]: 46.8%
growth at 10 µM (HCC 2998): 69.2%
growth at 10 µM (SK-MEL-2): 119%
growth at 10 µM (DU-145): 96.7%
growth at 10 µM (OVCAR-5): 96.5%
growth at 10 µM (A549): 88.9%

Reference: ChEMBL document CHEMBL2040759, “Design, synthesis and anticancer activity of nitric oxide donating/chalcone hybrids” (2012)
